These results are taken from patent publication US20260258054A1, “SMALL MOLECULE FOR TREATMENT OF CANCER OF THE APPENDIX” (The Regents of the University of California, priority 2022, published 2026).

“Also recorded” adds a separate entry of the source.

Experiment [1] deals with KM12 GNAS^R201H organoids. The experiment is described as follows: 3D organoid growth, KM12 GNAS^R201H organoids. It counts as cell-based, human. As to conditions: H-89 60 μM, 10 days, vs. DMSO control, p=0.004. Here is the method:
(§1) FIGS. 4A-4C: GNAS signals through the CAMP-PKA axis. (FIG. 4A), KM12 GNAS^R201H and GNAS^352delG cells were treated with forskolin (0-250 μM) for 15 min. Following the treatment, cells were lysed, and cAMP levels were measured as described in the methods. (FIG. 4B), LS174T GNAS^R201H cells were treated with and without doxycycline, and cAMP levels measured after induction with forskolin (0-2.5 μM) for 15 min. (FIG. 4C), KM12 GNAS^R201H and GNAS^352delG organoids were grown in 3D-matrigel domes and treated with the PKA inhibitor H-89 (60 μM) for 10 days.
FIGS. 5A-5F: β-catenin is a downstream mediator of mutant GNAS signaling. (FIG. 5A), Top 10 hallmark genesets from the KM12 GNAS^KO-pool and LS174T GNAS overexpression datasets were selected and overlapping genesets were plotted. […] (FIG. 5D), Quantification of IHC tumors showing % of cells staining positive of β-catenin. (FIG. 5E), Quantification of the cytoplasmic and nuclear distribution of β-catenin based on IHC staining. […]
KM12 and LS174T cells were suspended with Matrigel (BD) at 100 cells/μL and plated as 5 μL droplets onto 96-well multi-well culture plates. […] The plates were placed in the cell imaging multi-mode plate reader Cytation™ 5 (Biotek, Winooski, VT) at 37° C. in an atmosphere supplemented with 5% CO2. […] The numbers and total area of organoids were calculated.

Experiment [2] concerns SNU-175 cells (GNAS^R201C). The experiment is described as follows: Incucyte viability (confluence), SNU-175 cells. It counts as cell-based, human. Here is the method: (§2) Viability was measured over time but determining cell confluence in experimental well using Incucyte Live-Cell Analysis system (Sartorius). JVS-324 was added in increasing concentrations and cell growth monitored for 72 hours. Confluency evaluation was normalized time point zero. An isogenic paired cell line was created by using CRISPR-Cas9 to knockout (KO) GNAS from the SNU-175 cell line; this model system has been previously described (Oncogene. 2022 August; 41 (35):4159-4168).
(§3) Viability was measured over time but determining cell confluence in experimental well using Incucyte Live-Cell Analysis system (Sartorius); two experiments performed. […] (FIG. 26).

The next experiment concerns GNAS KO SNU-175. Briefly: Incucyte viability (confluence), GNAS KO SNU-175 cells. It is filed as cell-based, human. How it is done: as §2, §3
Experiment [3] concerns SNU-175 (GNAS^R201C CRC cell line). Briefly: cAMP-Glo assay, SNU-175 cells. It counts as cell-based, human. Here is the method:
(§4) A study was conducted to examine the effect of compound GE3 as a Gαs Inhibitor. Cells were treated with compound GE3 at high (1-5 mM) and low (0-0.5 mM) doses for 20 hours. cAMP levels were measured using the CAMP-Glo™ Assay (Promega). An isogenic paired cell line was created by using CRISPR-Cas9 to knockout (KO) GNAS from the SNU-175 cell line; this model system has been previously described (Oncogene. 2022 August; 41(35):4159-4168).
(§5) The same experimental system was used as above to test lower doses of GE3.

The test system of experiment [4] is GNAS KO isogenic paired cell line of SNU-175. The experiment is described as follows: cAMP-Glo assay, GNAS KO SNU-175 cells. It counts as cell-based, human. The conditions noted are these: mM doses (1-5 mM), 20 hours. Here is the method: as §4, §5
A further experiment deals with MEK regulated genes. The experiment is described as follows: RNAseq analysis of post-treatment samples from trial NCT03108131 in appendiceal cancer. It is filed as in vivo. As to conditions: cobimetinib with atezolizumab, three post-treatment samples.
A further experiment deals with LS174T GNAS^R201H cells. Briefly: cAMP levels, LS174T cells overexpressing GNAS^R201H. It counts as cell-based, human. As to conditions: forskolin 0-2.5 μM, 15 min; doxycycline induced. How it is done: as §1
For orientation: Changes in cAMP serve as a functional read-out for many G protein-coupled receptors.

The test system of experiment [5] is KM12 GNAS^352delG organoids. The experiment is described as follows: 3D organoid growth, KM12 GNAS knockout (GNAS^352delG) organoids. It is filed as cell-based, human. As to conditions: supplementation of organoid cultures with conditioned medium. How it is done:
as §1
FIGS. 5A-5F: β-catenin is a downstream mediator of mutant GNAS signaling. (FIG. 5A), Top 10 hallmark genesets from the KM12 GNAS^KO-pool and LS174T GNAS overexpression datasets were selected and overlapping genesets were plotted. (FIG. 5B), Ratio of pT41/S45 phosphoβ-catenin/β-catenin based on the RPPA analysis results. (FIG. 5C), Immunohistochemistry (IHC) staining of β-catenin in LS174T dox (−) and dox (+) tissues from intraperitoneal mouse tumors. (FIG. 5D), Quantification of IHC tumors showing % of cells staining positive of β-catenin. (FIG. 5E), Quantification of the cytoplasmic and nuclear distribution of β-catenin based on IHC staining. (FIG. 5F), Effect of LF3 (β-catenin inhibitor) on the growth of KM12 (GNAS^R201H and GNAS^352delG) organoids. DMSO (0.2%) was used as control treatment and organoids were cultured for 10 days.
FIGS. 9A-9B: Wnt stimulation rescued growth of GNAS knockout organoids. (FIG. 9A), 3D growth of KM12 GNAS knockout organoids after supplementation with Wnt3a or R-spondin conditioned medium. (FIG. 9B), Quantification of growth by measuring total colony area (%).
KM12 and LS174T cells were suspended with Matrigel (BD) at 100 cells/μL and plated as 5 μL droplets onto 96-well multi-well culture plates. The plates were incubated at 37° C. for 15 min. […] The plates were placed in the cell imaging multi-mode plate reader Cytation™ 5 (Biotek, Winooski, VT) at 37° C. in an atmosphere supplemented with 5% CO2. […] The numbers and total area of organoids were calculated.

`O=S(=O)(NCCNC/C=C/c1ccc(Br)cc1)c1cccc2cnccc12` [Compound H-89]: the “reduced the growth of KM12 organoids” value in experiment [1] is 79%.
For `CCC(CC)COC(=O)[C@H](C)NP(=O)(OC[C@H]1O[C@@H](n2cnc3c(=O)[nH]c(N)nc32)[C@@H]2O[C@@H]21)Oc1ccccc1` (stereo partly drawn) [GE3], the “dose by which growth was comparable to the level in the KO cells” value in experiment [2] was 0.01 mM. The “cell growth / viability” value in experiment [2] (GE3, lower doses) is on record as “dose-dependent fashion; also recorded: decreased viability”. The cell growth result is reported as “significantly reduced growth” in experiment [2] (GE3 at mM doses), “essentially no growth” in experiment [2] (GE3 by 1 mM), “significantly reduced growth” in the experiment with GNAS KO SNU-175 (GE3 at mM doses) and “essentially no growth” with GNAS KO SNU-175 (GE3 by 1 mM). Besides, the IC50 (commonly the concentration that gives 50% inhibition) in experiment [2] (Homo sapiens, read-out: IC50 in viability assay) is 105 µM. In experiment [3], the “potency relative to JVS-324 (cAMP)” value is reported as “significantly more potent”. For the same molecule, in experiment [3] (20 hours), the “dose by which cAMP level was comparable to the level in the KO cells” value was 0.01 mM. Moreover, the cAMP levels result in experiment [3] (lower doses (0-0.5 mM), 20 hours) is recorded as “dose-dependent fashion; also recorded: inhibits cAMP production”; in experiment [3] (mM doses (1-5 mM), 20 hours) it was “significantly reduced CAMP; also recorded: inhibits cAMP production”; in experiment [4], “significantly reduced CAMP”.
Regarding `O=C(c1ccc(F)c(F)c1Nc1ccc(I)cc1F)N1CC(O)([C@@H]2CCCCN2)C1` [cobimetinib], in the experiment with MEK regulated genes, the “expression of MEK regulated genes” value is on record as “not down regulated”.
Regarding `C=C[C@@]1(C)CC(=O)[C@]2(O)[C@@]3(C)[C@@H](O)CCC(C)(C)[C@@H]3[C@H](O)[C@H](OC(C)=O)[C@@]2(C)O1` [forskolin], the “effect of forskolin on basal levels of cAMP” value in the experiment with LS174T GNAS^R201H cells is recorded as “no effect”.
Turning to Wnt3a, the “rescue of organoid growth of GNAS-knockout cells” value in experiment [5] is reported as “rescued organoid growth”; in experiment [5] (listed as WNT3A), “can be rescued”; in experiment [5] (listed as Wnt3A), “rescue GNAS knockout”.
